Measured values published in US20240269139A1, “COMPOUNDS FOR TARGETED PROTEIN DEGRADATION OF KINASES” (DANA-FARBER CANCER INSTITUTE, INC., priority 2020, published 2024).
Like-named read-outs stand apart in the source and are kept apart here.

Assays:
Format in all cases: cell-based
[1] = biological target: T1, protein kinases (human kinome) (Homo sapiens, UniProt Q16854); settings: DGUOK (Q16854)
T1 sequence (Q16854 40-277): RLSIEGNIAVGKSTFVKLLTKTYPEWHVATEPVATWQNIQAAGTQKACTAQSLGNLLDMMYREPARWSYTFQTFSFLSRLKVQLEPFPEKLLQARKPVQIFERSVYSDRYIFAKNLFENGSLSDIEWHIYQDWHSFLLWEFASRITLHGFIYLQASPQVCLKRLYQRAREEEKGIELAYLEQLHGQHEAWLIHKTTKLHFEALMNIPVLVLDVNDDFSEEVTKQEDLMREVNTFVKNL

[2] = biological target: protein kinases (human kinome) (Homo sapiens, UniProt O14874); settings: BCKDK (O14874)
[3] = biological target: protein kinases (human kinome) (Homo sapiens, UniProt Q9NYL2)
Chain of protein kinases (human kinome) (Homo sapiens, UniProt Q9NYL2) (Q9NYL2 whole entry): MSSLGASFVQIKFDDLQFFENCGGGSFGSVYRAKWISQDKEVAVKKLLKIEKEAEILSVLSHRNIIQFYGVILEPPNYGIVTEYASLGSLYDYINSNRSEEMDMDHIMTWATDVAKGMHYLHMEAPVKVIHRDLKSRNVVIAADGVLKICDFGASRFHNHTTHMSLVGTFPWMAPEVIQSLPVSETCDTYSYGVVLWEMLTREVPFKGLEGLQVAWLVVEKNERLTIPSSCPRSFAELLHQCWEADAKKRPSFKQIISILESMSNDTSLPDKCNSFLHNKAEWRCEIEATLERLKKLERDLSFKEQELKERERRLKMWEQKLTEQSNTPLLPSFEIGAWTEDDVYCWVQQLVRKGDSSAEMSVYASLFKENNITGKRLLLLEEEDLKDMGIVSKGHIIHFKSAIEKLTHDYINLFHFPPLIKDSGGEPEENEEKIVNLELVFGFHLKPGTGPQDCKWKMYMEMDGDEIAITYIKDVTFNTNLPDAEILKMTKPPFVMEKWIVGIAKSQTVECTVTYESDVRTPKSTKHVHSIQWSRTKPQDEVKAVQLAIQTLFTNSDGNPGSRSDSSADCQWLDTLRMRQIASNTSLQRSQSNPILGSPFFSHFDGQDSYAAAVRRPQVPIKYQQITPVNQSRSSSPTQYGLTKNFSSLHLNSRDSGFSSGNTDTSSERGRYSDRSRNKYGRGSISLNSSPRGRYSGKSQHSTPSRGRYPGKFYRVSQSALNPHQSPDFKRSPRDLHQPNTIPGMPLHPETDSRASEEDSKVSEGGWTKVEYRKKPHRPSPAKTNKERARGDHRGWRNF

[4] = biological target: protein kinases (human kinome) (Homo sapiens, UniProt O96013); settings: PAK4 O96013-1
Chain of protein kinases (human kinome) (Homo sapiens, UniProt O96013) (O96013 whole entry): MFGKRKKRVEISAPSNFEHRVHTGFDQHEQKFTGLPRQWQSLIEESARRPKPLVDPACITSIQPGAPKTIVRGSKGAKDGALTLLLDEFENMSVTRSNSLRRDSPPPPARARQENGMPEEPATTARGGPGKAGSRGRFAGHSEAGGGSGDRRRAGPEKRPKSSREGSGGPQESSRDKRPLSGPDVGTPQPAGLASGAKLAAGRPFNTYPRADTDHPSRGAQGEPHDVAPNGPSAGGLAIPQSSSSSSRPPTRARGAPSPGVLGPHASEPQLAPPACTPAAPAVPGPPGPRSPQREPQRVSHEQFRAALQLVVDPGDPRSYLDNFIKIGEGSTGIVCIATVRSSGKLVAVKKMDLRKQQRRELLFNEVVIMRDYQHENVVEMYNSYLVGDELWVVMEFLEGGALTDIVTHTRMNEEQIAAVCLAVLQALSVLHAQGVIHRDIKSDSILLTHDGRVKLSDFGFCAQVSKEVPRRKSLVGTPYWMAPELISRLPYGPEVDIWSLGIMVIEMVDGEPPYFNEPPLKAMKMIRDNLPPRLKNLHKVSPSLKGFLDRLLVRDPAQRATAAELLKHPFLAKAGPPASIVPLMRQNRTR

[5] = experiment wp084, direction down
[6] = experiment wp147, 4 uM, direction down

## CC(=O)c1c(C)c2cnc(Nc3ccc(N4CCN(CCOCCOCCOCCNC(=O)COc5cccc6c5C(=O)N(C5CCC(=O)NC5=O)C6=O)CC4)cn3)nc2n(C2CCCC2)c1=O (stereo not shown) [BSJ.03.123]
[1]; experiment wp084
  logFC: −0.4377
[2]; experiment wp084
  logFC: −0.4553
[2]; [5]
  logFC: −0.4553

## CN(C)C(=O)c1cc2cnc(Nc3ccc(N4CCN(CCCCNC(=O)COc5cccc6c5C(=O)N(C5CCC(=O)NC5=O)C6=O)CC4)cn3)nc2n1C1CCCC1 (stereo not shown) [BSJ.04.132]
[1]; experiment wp084
  logFC: −0.5254
[2]; experiment wp084
  logFC: −0.5188
[2]; [5]
  logFC: −0.5188

## CC(C)(C)c1nc(-c2cccc(NS(=O)(=O)c3c(F)cccc3F)c2F)c(-c2ccnc(NCCOCCNC(=O)CCOCCOCCNc3cccc4c3C(=O)N(C3CCC(=O)NC3=O)C4=O)n2)s1 (stereo not shown) [DD.03.106]
[1]; experiment wp147, 4 uM
  logFC: −0.5418
[2]; experiment wp137
  logFC: −0.3275
[2]; experiment wp137, direction down
  logFC: −0.3275
[2]; experiment wp147, 4 uM
  logFC: −0.5831
[2]; [6]
  logFC: −0.5831
[3]; Experiment wp147, 2 uM
  logFC MAP3K20 (Q9NYL2): −0.4079
[3]; MAP3K20 Q9NYL2, experiment wp147, 2 uM
  logFC MAP3K20: −0.4079

## CC(C)(C)c1nc(-c2cccc(NS(=O)(=O)c3c(F)cccc3F)c2F)c(-c2ccnc(NCCOCCNC(=O)CCOCCOCCNc3cccc4c3CN(C3CCC(=O)NC3=O)C4=O)n2)s1 (stereo not shown) [DD.03.107]
[1]; experiment wp147, 1 uM
  logFC: −0.5245
[1]; experiment wp147, 4 uM
  logFC: −0.9678
[2]; experiment wp147, 4 uM
  logFC: −1.113
[2]; [6]
  logFC: −1.113

## C=CCn1c(=O)c2cnc(Nc3ccc(N4CCN(CCCNc5cccc6c5C(=O)N(C5CCC(=O)NC5=O)C6=O)CC4)cc3)nc2n1-c1cccc(C(C)(C)O)n1 (stereo not shown) [ZNL.02.096]
[1]; experiment wp118
  logFC: −0.5337
[4]; experiment wp056
  logFC: −0.634
  logFC PAK4: −0.634
[4]; experiment wp081
  logFC: −0.3989
  logFC PAK4: −0.3989
[4]; experiment wp106, 2 hr
  logFC: −0.4238
  logFC PAK4: −0.4238
[4]; experiment wp106, 4 hr
  logFC: −0.5768
  logFC PAK4: −0.5768
[4]; experiment wp118
  logFC: −0.5732
  logFC PAK4: −0.5732
